Substitutions are numbered along the chain they refer to. Read-outs that look alike come from different tables or passages of the source.
Key:
hEg5-367H = biological target: T1, hEg5-367H (Homo sapiens, UniProt P52732); assay: ATP hydrolysis by recombinant human Eg5 motor domain (NADH-enzyme coupled assay); format: biochemical
T1 construct: motor domain (amino acid residues 1–367) of human Eg5; His6 (C); made in house
T1 sequence (P52732 1-367): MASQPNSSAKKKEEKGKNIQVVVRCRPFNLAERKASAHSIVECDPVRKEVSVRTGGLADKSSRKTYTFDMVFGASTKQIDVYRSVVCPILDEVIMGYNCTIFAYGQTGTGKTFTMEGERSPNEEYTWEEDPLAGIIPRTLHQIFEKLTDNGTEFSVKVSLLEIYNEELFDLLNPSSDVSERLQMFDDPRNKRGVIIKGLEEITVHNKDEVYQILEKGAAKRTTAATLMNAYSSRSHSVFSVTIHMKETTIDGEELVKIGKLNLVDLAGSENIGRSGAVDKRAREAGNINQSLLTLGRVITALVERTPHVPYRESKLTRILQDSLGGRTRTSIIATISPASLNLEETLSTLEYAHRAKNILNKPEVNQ
Protocol: (§1) Figure 2 Structure-activity relationship of monastrol derivatives. (A) Scheme depicting the Biginelli condensation, a one-pot reaction for preparing monastrol derivatives. […] Each data point is the average of three independent experiments. […] Each cell-based assay was performed in duplicate.
We used a modified PCR mutagenesis protocol to introduce mutations into hEg5-367H, a plasmid encoding the C-terminally His6-tagged motor domain (amino acid residues 1–367) of human Eg5. The wild-type and mutant proteins were expressed and purified using Ni-NTA affinity chromatography and concentrated to between 3 and 10 mg/ml protein as described.
(§2) ATP hydrolysis by recombinantly expressed kinesin motor domains was measured using an NADH-enzyme coupled assay. ATP hydrolysis was measured in KC25 buffer supplemented with 5 μM taxol, 1 mM ATP-KOH (pH 7.0), the appropriate concentration of motor domain, and the appropriate concentrations of taxol-polymerized microtubules.

BS-C-1 cells = assay: Monoaster formation in tissue culture cells (manual count of mitotic cells); format: cell-based, green monkey; details: Chlorocebus sabaeus, BSC-1, 6 h, read-out: Cells: monoaster formation score (drug concentration with roughly equal monastral and bipolar spindles)
Protocol: as §1
Conditions for growing the following cell lines are as described: D. rerio AB9 (37), D. melanogaster KC167 [38], and BS-C-1 green monkey kidney cells. For immunofluorescence microscopy, cells were grown on 12 mm circular coverslips to 30 % confluence, treated medium supplemented with drug and 0.2% DMSO, or a DMSO alone, for 6 hours, fixed with formaldehyde, and stained for DNA and microtubules, as described. D. melanogaster KC167 cells were cultured in Schneider's Drosophila Medium (GIBCO) whereas D. rerio AB9 cells and BS-C-1 green monkey kidney cells were cultured at 37°C in Dulbecco's Minimal medium in the presence of 10 % heat inactivated fetal calf serum.

BimC = tested on: BimC; parameters: method as in PMID 12525161; details: cited from earlier work
hEg5-367H (L214I) = biological target: T2, hEg5-367H (L214I) (Homo sapiens, UniProt P52732, L214I); assay: ATP hydrolysis by Eg5 motor domain mutant L214I; format: biochemical; details: Figure 4B; legend: basal ATP hydrolysis; read-out: IC50(μM) of monastrol, (L214I)
T2 sequence (P52732 1-367 L214I): T1 sequence (P52732 1-367) with L214I
Text: Figure 4 Mutagenesis of the monastrol binding site in human Eg5. (A) Design of mutations in the human Eg5 motor domain. Amino acid side chains that are not conserved between Eg5 and conventional kinesin were targeted, either introducing chimeric or rationally designed mutations (asterix for targeted point mutants) to test the contribution of residues to the drug-sensitivity of Eg5. (B) Steady-state enzymatic parameters for engineered human Eg5 motor domain mutants. Steady-state ATP hydrolysis by Eg5 was measured using an NADH-enzyme coupled assay varying the concentration of ATP, microtubules, or monastrol to obtain the microtubule concentration for half-maximal stimulation (K0.5MT), the maximal rate of microtubule-stimulated ATP hydrolysis (kcat), and the concentration of monastrol that inhibits basal ATP hydrolysis by 50 % (IC50), as described.
We used a modified PCR mutagenesis protocol to introduce mutations into hEg5-367H, a plasmid encoding the C-terminally His6-tagged motor domain (amino acid residues 1–367) of human Eg5. […]
as §2

Work on `CCOC(=O)C1=C(C)NC(=S)NC1c1cccc(O)c1` (centres unmarked) [Monastrol] yielded an IC50 (hEg5-367H; 500 nM hEg5-367H, KC25 buffer, 1 mM ATP-KOH (pH 7.0), 1 μM taxol-stabilized microtubules, read-out: IC50 (μM), inhibition of ATP hydrolysis by Eg5 motor domain) of 5.2 ± 0.4 µM, an IC50 (hEg5-367H; wild-type motor domain, Figure 4B, legend: basal ATP hydrolysis, read-out: IC50(μM) of monastrol, hEg5-367H) of 10 ± 2 µM and an EC50 (BS-C-1 cells) of less than 50 µM. The “Inhibition of BimC” value (BimC) was “not” and the IC50 (hEg5-367H (L214I)) was 63 ± 7 µM.
